We go through 5 compounds from ChEMBL document CHEMBL5465560, “Selectivity Literature for EUbOPEN Chemogenomic Library” (2024).

Each structure is given as a SMILES string.

The target of experiment [1] is Dual specificity protein kinase CLK2 (Homo sapiens, UniProt P49760). Briefly: Selectivity interaction (KinomeScan (DiscoverX)) EUB0000595a CLK2. The settings on record: at 10 µM.
Experiment [2] addresses T1, Serine/threonine-protein kinase TAO3 (Homo sapiens) (UniProt Q9H2K8).
T1 sequence (whole entry): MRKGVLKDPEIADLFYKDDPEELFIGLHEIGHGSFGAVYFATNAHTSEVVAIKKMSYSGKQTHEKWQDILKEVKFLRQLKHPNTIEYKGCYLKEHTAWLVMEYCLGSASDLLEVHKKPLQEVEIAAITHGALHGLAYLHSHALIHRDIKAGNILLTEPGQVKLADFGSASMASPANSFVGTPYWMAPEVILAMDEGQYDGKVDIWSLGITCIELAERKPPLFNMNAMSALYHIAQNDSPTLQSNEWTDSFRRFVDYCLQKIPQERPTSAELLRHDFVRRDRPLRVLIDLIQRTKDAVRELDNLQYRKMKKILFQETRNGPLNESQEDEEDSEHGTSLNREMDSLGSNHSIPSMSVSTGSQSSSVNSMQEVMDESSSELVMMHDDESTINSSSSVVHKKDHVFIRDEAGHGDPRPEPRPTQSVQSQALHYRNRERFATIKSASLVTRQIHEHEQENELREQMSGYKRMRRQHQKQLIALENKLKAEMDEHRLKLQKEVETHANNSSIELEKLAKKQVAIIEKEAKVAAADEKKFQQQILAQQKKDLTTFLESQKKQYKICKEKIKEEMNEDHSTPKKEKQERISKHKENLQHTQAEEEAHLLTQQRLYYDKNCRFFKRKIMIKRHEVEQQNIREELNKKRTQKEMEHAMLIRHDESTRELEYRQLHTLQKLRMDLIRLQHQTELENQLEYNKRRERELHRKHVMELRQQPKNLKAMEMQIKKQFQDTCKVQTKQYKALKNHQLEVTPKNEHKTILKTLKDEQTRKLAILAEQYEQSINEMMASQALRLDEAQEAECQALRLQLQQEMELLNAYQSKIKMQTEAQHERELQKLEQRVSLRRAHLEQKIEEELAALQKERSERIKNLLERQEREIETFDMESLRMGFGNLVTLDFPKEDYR
Briefly: Selectivity interaction (Ambit KINOMEscan and KiNATiv profiling in Jurkat cells) EUB0000090b TAOK3. It counts as cell-based. Conditions: at 1 µM.

For experiment [3], the target named is Rho-associated protein kinase 2 (Homo sapiens, UniProt O75116). Briefly: Selectivity interaction (KinomeScan (DiscoverX)) EUB0000092b ROCK2. The settings on record: at 10 µM.
Rho-associated protein kinase 2, sequence (O75116 whole entry, looked up): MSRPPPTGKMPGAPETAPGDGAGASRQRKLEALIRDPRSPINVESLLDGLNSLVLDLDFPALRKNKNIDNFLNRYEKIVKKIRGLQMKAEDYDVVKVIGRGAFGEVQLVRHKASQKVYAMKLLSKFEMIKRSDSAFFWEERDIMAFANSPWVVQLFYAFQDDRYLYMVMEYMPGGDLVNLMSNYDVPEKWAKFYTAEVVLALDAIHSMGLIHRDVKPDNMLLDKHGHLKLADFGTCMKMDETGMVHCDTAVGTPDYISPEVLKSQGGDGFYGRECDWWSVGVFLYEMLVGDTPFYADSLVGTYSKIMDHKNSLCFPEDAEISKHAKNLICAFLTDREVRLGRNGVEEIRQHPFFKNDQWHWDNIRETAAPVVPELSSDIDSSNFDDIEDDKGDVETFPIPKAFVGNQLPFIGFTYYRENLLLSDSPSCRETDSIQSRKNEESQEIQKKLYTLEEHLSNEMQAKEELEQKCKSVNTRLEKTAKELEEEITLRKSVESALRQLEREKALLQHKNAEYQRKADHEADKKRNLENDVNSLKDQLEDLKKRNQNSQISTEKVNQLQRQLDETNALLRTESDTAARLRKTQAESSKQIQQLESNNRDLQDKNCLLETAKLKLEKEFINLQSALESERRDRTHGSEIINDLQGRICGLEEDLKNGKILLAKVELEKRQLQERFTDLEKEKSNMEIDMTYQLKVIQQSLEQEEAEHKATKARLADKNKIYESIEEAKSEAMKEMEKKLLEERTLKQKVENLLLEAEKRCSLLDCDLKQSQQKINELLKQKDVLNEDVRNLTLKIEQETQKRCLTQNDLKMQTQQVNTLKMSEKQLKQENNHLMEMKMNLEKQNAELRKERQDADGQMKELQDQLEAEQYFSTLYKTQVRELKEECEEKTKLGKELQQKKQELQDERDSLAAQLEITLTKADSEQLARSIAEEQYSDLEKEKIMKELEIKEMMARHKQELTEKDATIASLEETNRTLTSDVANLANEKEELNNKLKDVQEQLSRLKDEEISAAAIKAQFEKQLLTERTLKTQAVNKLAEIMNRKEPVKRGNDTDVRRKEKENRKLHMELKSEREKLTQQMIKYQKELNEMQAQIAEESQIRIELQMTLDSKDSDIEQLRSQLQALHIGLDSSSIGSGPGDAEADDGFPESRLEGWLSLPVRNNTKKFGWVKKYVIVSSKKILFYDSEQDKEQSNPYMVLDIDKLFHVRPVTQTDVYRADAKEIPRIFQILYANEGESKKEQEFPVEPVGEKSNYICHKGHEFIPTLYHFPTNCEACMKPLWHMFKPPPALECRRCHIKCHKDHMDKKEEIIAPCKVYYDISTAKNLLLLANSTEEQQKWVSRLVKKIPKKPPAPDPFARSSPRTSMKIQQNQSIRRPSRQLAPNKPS
The target of experiment [4] is Non-receptor tyrosine-protein kinase TYK2 (Homo sapiens, UniProt P29597). In words: Selectivity interaction (KinomeScan (DiscoverX)) EUB0001079a TYK2. Conditions: at 1 µM.
Non-receptor tyrosine-protein kinase TYK2, sequence (P29597 whole entry): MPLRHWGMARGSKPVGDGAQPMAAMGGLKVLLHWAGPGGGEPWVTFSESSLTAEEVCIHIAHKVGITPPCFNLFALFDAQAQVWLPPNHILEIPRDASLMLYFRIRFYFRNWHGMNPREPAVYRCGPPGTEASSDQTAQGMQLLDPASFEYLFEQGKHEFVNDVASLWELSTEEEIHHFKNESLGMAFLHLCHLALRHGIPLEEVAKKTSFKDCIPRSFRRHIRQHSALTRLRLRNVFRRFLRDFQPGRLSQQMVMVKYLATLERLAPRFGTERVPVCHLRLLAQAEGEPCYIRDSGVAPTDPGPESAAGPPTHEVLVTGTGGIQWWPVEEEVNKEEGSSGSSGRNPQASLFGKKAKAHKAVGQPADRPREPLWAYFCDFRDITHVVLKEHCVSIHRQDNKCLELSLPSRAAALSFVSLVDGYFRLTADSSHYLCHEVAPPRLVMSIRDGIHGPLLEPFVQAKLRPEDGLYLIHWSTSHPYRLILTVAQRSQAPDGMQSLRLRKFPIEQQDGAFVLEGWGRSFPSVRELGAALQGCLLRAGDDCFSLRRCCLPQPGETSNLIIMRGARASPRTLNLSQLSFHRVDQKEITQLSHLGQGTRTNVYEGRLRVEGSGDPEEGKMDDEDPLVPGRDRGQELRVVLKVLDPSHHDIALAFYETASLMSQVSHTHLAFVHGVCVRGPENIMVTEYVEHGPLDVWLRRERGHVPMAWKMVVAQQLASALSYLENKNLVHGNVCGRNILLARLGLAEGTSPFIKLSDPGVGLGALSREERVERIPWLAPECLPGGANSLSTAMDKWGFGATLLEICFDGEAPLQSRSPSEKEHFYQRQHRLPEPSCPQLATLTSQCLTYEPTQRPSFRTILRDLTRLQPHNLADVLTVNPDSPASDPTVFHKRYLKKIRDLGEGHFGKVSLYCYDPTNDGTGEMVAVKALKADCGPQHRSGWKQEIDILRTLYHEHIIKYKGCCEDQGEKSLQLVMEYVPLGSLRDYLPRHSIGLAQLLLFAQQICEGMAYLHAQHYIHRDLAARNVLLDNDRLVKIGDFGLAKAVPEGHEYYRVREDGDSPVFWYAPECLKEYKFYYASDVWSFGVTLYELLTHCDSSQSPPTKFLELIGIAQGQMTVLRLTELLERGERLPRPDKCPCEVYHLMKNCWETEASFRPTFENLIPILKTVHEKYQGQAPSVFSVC
For experiment [5], the target named is T2, Serine/threonine-protein kinase STK11 (Homo sapiens) (UniProt Q15831).
T2 sequence (whole entry): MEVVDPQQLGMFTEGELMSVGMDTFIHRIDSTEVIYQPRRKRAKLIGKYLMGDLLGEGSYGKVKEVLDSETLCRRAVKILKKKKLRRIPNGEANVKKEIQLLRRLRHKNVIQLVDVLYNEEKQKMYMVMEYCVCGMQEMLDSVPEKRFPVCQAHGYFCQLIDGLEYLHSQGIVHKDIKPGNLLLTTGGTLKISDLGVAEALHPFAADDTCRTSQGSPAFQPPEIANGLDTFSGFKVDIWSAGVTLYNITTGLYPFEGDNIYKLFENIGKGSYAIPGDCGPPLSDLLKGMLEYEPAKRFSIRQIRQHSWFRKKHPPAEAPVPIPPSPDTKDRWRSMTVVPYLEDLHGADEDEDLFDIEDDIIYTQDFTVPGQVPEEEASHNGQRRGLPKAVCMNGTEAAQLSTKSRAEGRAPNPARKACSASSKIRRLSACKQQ
Briefly: Selectivity interaction (KinomeScan (DiscoverX)) EUB0001079a STK11. Conditions: at 1 µM.

The target of experiment [6] is Ephrin type-A receptor 2 (Homo sapiens) (UniProt P29317). In words: Selectivity interaction (KinomeScan (DiscoverX)) EUB0000229b EPHA2. The settings on record: at 10 µM.
Ephrin type-A receptor 2 (Homo sapiens), sequence (P29317 whole entry): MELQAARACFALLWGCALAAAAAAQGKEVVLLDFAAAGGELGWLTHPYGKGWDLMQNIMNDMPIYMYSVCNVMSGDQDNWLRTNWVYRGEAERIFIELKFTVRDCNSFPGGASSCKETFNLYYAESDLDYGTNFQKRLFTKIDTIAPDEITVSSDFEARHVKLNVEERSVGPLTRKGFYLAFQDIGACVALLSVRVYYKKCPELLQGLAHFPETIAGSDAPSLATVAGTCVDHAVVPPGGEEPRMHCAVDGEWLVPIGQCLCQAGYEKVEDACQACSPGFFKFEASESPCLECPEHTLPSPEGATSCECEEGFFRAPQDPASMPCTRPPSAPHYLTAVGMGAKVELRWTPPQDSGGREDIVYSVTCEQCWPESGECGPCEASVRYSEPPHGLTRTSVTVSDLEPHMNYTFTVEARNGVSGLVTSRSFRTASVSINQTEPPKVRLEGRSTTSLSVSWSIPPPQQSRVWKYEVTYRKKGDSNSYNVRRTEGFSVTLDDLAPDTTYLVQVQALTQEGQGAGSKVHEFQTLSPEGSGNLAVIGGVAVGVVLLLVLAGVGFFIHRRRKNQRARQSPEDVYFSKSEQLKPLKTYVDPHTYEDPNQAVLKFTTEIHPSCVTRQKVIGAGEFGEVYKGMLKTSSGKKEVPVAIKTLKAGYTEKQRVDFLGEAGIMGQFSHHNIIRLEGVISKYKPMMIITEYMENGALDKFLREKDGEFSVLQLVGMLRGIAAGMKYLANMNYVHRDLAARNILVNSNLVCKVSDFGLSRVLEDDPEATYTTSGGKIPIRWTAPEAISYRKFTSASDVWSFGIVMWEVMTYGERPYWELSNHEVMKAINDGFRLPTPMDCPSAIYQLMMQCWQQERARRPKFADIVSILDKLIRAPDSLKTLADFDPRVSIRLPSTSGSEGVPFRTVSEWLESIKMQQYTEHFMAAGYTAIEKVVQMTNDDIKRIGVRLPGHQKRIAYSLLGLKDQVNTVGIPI
Experiment [7] deals with T3, Serine/threonine-protein kinase 17B (Homo sapiens) (UniProt O94768).
T3 sequence (whole entry): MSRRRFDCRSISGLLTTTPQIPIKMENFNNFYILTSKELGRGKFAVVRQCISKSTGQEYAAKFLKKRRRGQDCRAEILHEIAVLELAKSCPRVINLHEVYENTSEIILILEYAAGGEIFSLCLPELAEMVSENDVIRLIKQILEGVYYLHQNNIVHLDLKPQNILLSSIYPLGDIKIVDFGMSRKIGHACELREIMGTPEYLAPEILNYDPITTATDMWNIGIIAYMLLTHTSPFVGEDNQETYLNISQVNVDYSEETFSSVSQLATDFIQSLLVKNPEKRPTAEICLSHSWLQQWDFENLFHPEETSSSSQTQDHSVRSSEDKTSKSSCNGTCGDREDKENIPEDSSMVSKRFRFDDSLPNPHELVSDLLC
In words: Selectivity interaction (KinomeScan (DiscoverX)) EUB0000229b STK17B. The settings on record: at 10 µM.

Dual specificity protein kinase CLK2, sequence (P49760 whole entry, looked up): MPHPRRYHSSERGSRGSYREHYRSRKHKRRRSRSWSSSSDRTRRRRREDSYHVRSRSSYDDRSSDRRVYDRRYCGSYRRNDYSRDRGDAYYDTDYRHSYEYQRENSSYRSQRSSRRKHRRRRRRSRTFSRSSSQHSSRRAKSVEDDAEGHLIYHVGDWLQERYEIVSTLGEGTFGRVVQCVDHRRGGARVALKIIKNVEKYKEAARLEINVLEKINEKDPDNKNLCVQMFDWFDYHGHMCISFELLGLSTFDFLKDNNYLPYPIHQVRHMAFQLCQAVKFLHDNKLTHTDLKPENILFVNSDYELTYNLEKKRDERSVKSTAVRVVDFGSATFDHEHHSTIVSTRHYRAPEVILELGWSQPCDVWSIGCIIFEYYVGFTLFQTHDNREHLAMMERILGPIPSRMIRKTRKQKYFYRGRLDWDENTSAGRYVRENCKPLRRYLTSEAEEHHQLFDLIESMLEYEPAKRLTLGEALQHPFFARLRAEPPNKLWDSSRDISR

`COCC(=O)NC/C=C/c1ccc2ncnc(Nc3ccc(Oc4ccc(C)nc4)c(C)c3)c2c1` [CP-724714] registered a % of control in experiment [1] of 75%.

On to `CN(C)C/C=C/C(=O)Nc1ccc(C(=O)N2CCCC(Nc3ncc(Cl)c(-c4c[nH]c5ccccc45)n3)C2)cc1` (configuration not stated), for which, in experiment [2], the % of control was found to be 97%.

Take `CCC(=O)N1CCN(c2ccc(-n3c(=O)ccc4cnc5ccc(-c6cnc7ccccc7c6)cc5c43)cc2C(F)(F)F)CC1`: the % of control in experiment [3] was 50%.

Consider `Nc1cnc(N2CCc3cc(S(=O)(=O)Nc4c(F)cc(Cl)cc4F)cc(N4CCCC4=O)c32)nc1` [TP-020n], for which the % of control in experiment [4] and in experiment [5] was 100% throughout.

As for `COc1cc(N(C)c2ccnc3ccc(C(F)(F)F)cc23)cc(OC)c1OC`, the % binding in experiment [6] turned out to be 88%; in experiment [7], 100%.
